In patent publication US10316056B2, “Chemical compounds and use thereof for improving muscular quality” (BIOPHYTIS, priority 2014, dated 2019):

Tests used:
[1] = in vivo; settings: male, Wistar, rat, po, 10 mg/kg
Experimental: The pharmacokinetics of the compounds were evaluated orally using male Wistar rats (Charles River). […] The novel compounds according to the invention were administered at a dose of 10 mg/kg of body weight in the form of a mixture of 4 to 6 products. After administration, the blood was sampled from the tail at t=0.25 h, 0.5 h, 1 h, 3 h, 6 h and 8 h. The blood samples were centrifuged and the plasmas removed.

[2] = test system: myogenin transcripts; experiment: Mice subjected to a high-fat diet: myogenin transcripts of the Soleus muscle; assay type: in vivo, C57BL/6J mice; settings: 5 mg/kg orally; high-fat diet for 6 weeks; FIG. 5B
Experimental: (§1) The 20E as comparative compound and the compounds according to the invention (Nos. 51 and 93) were administered orally, at a dose of 5 mg/kg of body weight, to 12-week-old C57BL/6J mice subjected to a high-fat diet for 6 weeks. The effect of the compounds on the weight and the amount of proteins of the Soleus muscle and also the transcripts of genes involved in myogenesis were evaluated.
(§2) Myogenesis, which is the process for forming muscle tissues, is controlled by several myogenic transcription factors which act as end effectors of the signaling cascade and produce transcripts involved in the various stages of development. The roles of the transcription factors have been described in various journals (Sabourin and Rudnicki 2000 and Le Grand and Rudnicki 2007). The Pax7 protein (Paired-box protein 7) maintains a population of satellite cells in quiescence and, with Myf5 (Myogenic factor 5), plays a role in the expansion of activated myoblasts. The MyoD protein (Myoblast Determination protein) appears to determine the differentiation potential of activated myoblasts, and cooperates with myogenin and the MEF2 (Myocyte Enhancer Factor 2) protein to control and bring about differentiation. Finally, MRF4 (Muscle-specific Regulatory Factor 4) is required for hypertrophy, even though it probably plays other roles. […]
(§3) The relative differences in gene expression between treatments are expressed as increase or decrease in the number of cycle times [Ct] compared with the control group, the [Ct] value of each gene having been standardized with the beta-actin gene.
(§4) The in vivo study is carried out by evaluating the effect of 20E as comparative compound and of the molecules according to the invention (Nos. 51 and 93) administered orally, at a dose of 5 mg/kg of body weight, to C57BL/6 mice subjected to a high-fat diet for 6 weeks. The effect of the molecules on the weight and the amount of proteins of the Soleus muscle and also the transcripts of genes involved in myogenesis were evaluated.

[3] = test system: Myf5 gene transcripts; experiment: Mice subjected to a high-fat diet: Myf5 transcripts; assay type: in vivo, C57BL/6J mice; settings: 5 mg/kg orally; high-fat diet for 6 weeks
Experimental: as §1, §2, §3, §4

[4] = test system: MyoD transcripts; experiment: Mice subjected to a high-fat diet: MyoD transcripts of the Soleus muscle; assay type: in vivo, C57BL/6J mice; settings: 5 mg/kg orally; high-fat diet for 6 weeks; FIG. 5A
Experimental: as §1, §2, §3, §4

[5] = test system: myostatin gene expression in C2C12 cells; experiment: Inhibition of myostatin expression in C2C12 cells (qPCR); assay type: cell-based; settings: Mus musculus, percentage myostatin gene expression in cells in contact with the compounds related to control cells, C2C12, 6 h
Summary of the method: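 C2C12 myoblasts differentiated to myotubes for 5 days in 2% serum, then treated 6 h with compounds in serum-free, low-glucose (1 g/l) DMEM; IGF-1 100 ng/ml as reference. Myostatin mRNA quantified by RT-qPCR, expressed relative to untreated control as R=2^-ΔΔCt.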

[6] = test system: myostatin transcript; experiment: Mice subjected to a high-fat diet: myostatin transcript of the Soleus muscle; assay type: in vivo, C57BL/6J mice; settings: 5 mg/kg orally; high-fat diet for 6 weeks; FIG. 4
Experimental: as §1
In order to carry out the gene expression analysis, the muscle tissues were homogenized in a Trizol solution (500 μl), and the RNAs were extracted and purified using the phenol/chloroform method. An amount of […] of RNA was used as template for the synthesis of the first cDNA strand using oligo (dT)s as primers and the AMV reverse transcriptase enzyme as described by the supplier (Applied Biosystems 4368814). The q-PCRs were then carried out using a 7900HT machine equipped with a rapid system for real-time detection by PCR (Applied Biosystems) and the standard qPCR program (1 cycle of 95° C. for 15 min, 40 cycles of 95° C. for 15 s and 60° C. for 1 min, a 60-95° C. melt curve for the Sybergreen probes). The experiments are carried out in a Sybergreen SYBR master mix (Applied Biosystems) containing the 100 ng cDNA samples and a set of primers which bind to the two different exons and at a final concentration of 200 nM.
as §3, §4

Compound | AUC [1] [ng·h/mL] | Cmax [1] [ng/mL] | Tmax [1] [min] | transcript of the myogenin gene [2] | transcripts of the Myf5 gene [3] | transcripts of the MyoD gene [4] | mrna remaining at 10 µM [5] [%] | myostatin expression in the Soleus muscle [6]
CCC(CC)C(=O)N(CCOC)C(C)[C@H]1CC[C@@]2(O)C3=CC(=O)[C@@H]4C[C@@H](O)[C@@H](O)C[C@]4(C)C3CC[C@]12C (stereo partly drawn) [Compound 51, 2-ethyl-N-(2-methoxyethyl)-N-[1-[(2S,3R,5R,10R,13R,14S,17S)-2,3,14-trihydroxy-10,13-dimethyl-6-oxo-2,3,4,5,9,11,12,15,16,17-decahydro-1H-cyclopenta[a]phenanthren-17-yl]ethyl]butanamide] | 273 | 174 | 15 | increase | increase | increase | < 70 | comparably inhibit
CCSCC(=O)[C@H]1CC[C@@]2(O)C3=CC(=O)[C@@H]4C[C@@H](O)[C@@H](O)C[C@]4(C)C3CC[C@]12C (stereo partly drawn) [Compound 93, (2S,3R,5R,10R,13R,14S,17S)-17-(2-ethylsulfanylacetyl)-2,3,14-trihydroxy-10,13-dimethyl-2,3,4,5,9,11,12,15,16,17-decahydro-1H-cyclopenta[a]phenanthren-6-one] | 785 | 230 | 30 | increase | increase | increase | < 70 | comparably inhibit
